Assay results from patent publication US6277851A, “Bicyclic amino-pyrazinone compounds” (priority 1999, dated 2001).
Where a name gives a salt, the structure may show the parent alone.

Assays:
[1] = tested on: dog plasma; assay: Anti-coagulant activity after administration per os to dogs, ACT; format: in vivo; conditions: p.o.
Method: (§1) […] The coagulation times (TT, ACT) are determined from dog plasma samples 10 minutes before and 30 min, 1 hour, 2 hours, 4 hours and 6 hours after administration of the products.

[2] = tested on: dog plasma; assay: Anti-coagulant activity after administration per os to dogs, TT; format: in vivo; conditions: p.o.
Method: as §1

[3] = tested on: human plasma; assay: Anti-coagulant activity, activated cephalin time (ACT) in human plasma; format: biochemical; conditions: 37° C.
Method: (§2) In order to evaluate the anti-coagulant activity of the compounds of the invention, the thrombin time (TT) and activated cephalin time (ACT) were determined from human plasma samples. An ST4 coagulometer (Diagnostica Stago, France) was used. Plasma, deficient in platelets and lyophilised (Stago), is taken up in distilled water. The TT is obtained using the reagent Prest Thrombin and the ACT using the reagent PTT Automate […]. […] Under those conditions, the TT is of the order of 18 seconds and the ACT is of the order of 12 seconds. The activity of an antagonist is evaluated by its capacity to prolong the TT and the ACT relative to the control. The effect of the inhibitors is expressed by the concentration in μM that doubles the coagulation time (Ctt2).

[4] = molecular target: T1, human thrombin (Homo sapiens, UniProt P00734); assay: Inhibition of human thrombin (fibrinogen substrate, fibrin formation); format: biochemical; conditions: human thrombin 0.7 nM, 10 min preincubation, 20° C., pH 7.4
T1 construct: purchased Sigma
Method: Inhibitors, enzymes and substrates are diluted in the same buffer ([…] phosphate buffer, pH 7.4, containing 0.12 M sodium chloride and 0.05% of bovine serum albumin) and then distributed on a polystyrene microtitre plate in a volume of 50 μl. The fibrin formed by the thrombin or by the paranitroanilide released by the action of the serine protease is measured using a spectrophotometer at 405 nm after from 15 to 30 minutes' reaction at 20° C. Table 2 below gives in nM the concentration of the compounds that inhibits 50% of the enzymatic activity (IC50) of the thrombin compared with the control without product.

[5] = tested on: human plasma; assay: Anti-coagulant activity, thrombin time (TT) in human plasma; format: biochemical; conditions: 37° C.
Method: as §2

[6] = molecular target: uPA (Homo sapiens, UniProt P00749); assay: Inhibition of fibrinolysis serine proteases: uPA; format: biochemical; conditions: fibrinolysis protease
Method: (§3) Inhibitors, enzymes and substrates are diluted in the same buffer ([…] phosphate buffer, pH 7.4, containing 0.12 M sodium chloride and 0.05% of bovine serum albumin) and then distributed on a polystyrene microtitre plate in a volume of 50 μl. The fibrin formed by the thrombin or by the paranitroanilide released by the action of the serine protease is measured using a spectrophotometer at 405 nm after from 15 to 30 minutes' reaction at 20° C. Table 3 below gives in nM the concentration of the compounds that inhibits 50% of the enzymatic activity (IC50) of the fibrinolysis proteases.

[7] = molecular target: t-PA (Homo sapiens, UniProt P00750); assay: Inhibition of fibrinolysis serine proteases: t-PA; format: biochemical; conditions: fibrinolysis protease
Method: as §3

[8] = molecular target: T2, human plasmin (Homo sapiens, UniProt P00747); assay: Inhibition of fibrinolysis serine proteases: plasmin; format: biochemical; conditions: human plasmin 2 nM, substrate S 2403 0.50 mM, 20° C., pH 7.4
T2 construct: purchased Stago
Method: as §3

Chain of t-PA (P00750 36-562): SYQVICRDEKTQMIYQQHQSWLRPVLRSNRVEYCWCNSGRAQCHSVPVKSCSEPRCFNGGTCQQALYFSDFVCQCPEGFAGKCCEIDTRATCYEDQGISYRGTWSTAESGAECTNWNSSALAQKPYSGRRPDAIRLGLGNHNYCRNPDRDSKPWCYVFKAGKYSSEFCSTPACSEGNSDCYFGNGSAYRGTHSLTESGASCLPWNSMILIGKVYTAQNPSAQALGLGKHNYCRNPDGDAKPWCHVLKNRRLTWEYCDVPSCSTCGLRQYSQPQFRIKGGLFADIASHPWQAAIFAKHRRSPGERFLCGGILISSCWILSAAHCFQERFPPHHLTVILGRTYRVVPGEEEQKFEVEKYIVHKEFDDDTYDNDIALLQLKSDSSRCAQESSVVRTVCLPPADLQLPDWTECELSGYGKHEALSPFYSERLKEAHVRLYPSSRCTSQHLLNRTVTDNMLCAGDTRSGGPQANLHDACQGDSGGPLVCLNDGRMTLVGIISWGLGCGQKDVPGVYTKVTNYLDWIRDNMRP
T2 sequence (P00747 581-810 limits assumed): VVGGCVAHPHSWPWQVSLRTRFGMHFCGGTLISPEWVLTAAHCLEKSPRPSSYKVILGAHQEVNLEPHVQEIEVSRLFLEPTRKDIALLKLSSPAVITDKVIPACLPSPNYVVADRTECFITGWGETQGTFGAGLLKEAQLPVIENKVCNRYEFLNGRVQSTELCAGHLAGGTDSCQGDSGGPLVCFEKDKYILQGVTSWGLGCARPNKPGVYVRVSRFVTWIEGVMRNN

| SMILES | Maximum ACT increase (number of times by which the initial time has been increased) ([1]; 3 mg/kg) [times] | Maximum TT increase (number of times by which the initial time has been increased) ([2]; 3 mg/kg) [times] | ACT Ctt2 (concentration that doubles the coagulation time) [3] [µM] | IC50 [4] [nM] | TT Ctt2 (concentration that doubles the coagulation time) [5] [µM] | IC50 [6] [nM] | IC50 [7] [nM] | IC50 [8] [nM] | Maximum ACT increase (number of times by which the initial time has been increased) ([1]; 10 mg/kg) [times] | Maximum TT increase (number of times by which the initial time has been increased) ([2]; 10 mg/kg) [times] |
| --- | --- | --- | --- | --- | --- | --- | --- | --- | --- | --- |
| Cc1nc(N)ccc1CNC(=O)[C@@H]1CCc2cnc(NCC(c3ccccc3)c3ccccn3)c(=O)n21 (single isomer, unassigned) [Example 20] | 1.4 | 4.4 | 2.17 | 6 | 0.15 |  |  |  |  |  |
| Cc1nc(N)ccc1CNC(=O)[C@@H]1CCc2cnc(NCCc3ccccc3)c(=O)n21 [Example 1, (6S)-N-[(6-Amino-2-methyl-3-pyridyl)methyl]-4-oxo-3-(2-phenethylamino)-4,6,7,8-tetrahydropyrrolo[1,2-a]pyrazine-6-carboxamide dihydrochloride] | 1.6 | 3.6 | 9.1 | 34 | 3 | > 33000 | > 33000 | > 33000 |  |  |
| Cc1nc(N)ccc1CNC(=O)[C@@H]1CCc2cnc(NCC(c3ccccn3)c3ccccn3)c(=O)n21.Cl.Cl.Cl.Cl [Example 22, (6S)-N-[(6-Amino-2-methyl-3-pyridyl)methyl]-3-[2,2-di-(2-pyridyl)ethylamino]-4-oxo-4,6,7,8-tetrahydropyrrolo[1,2-a]pyrazine-6-carboxamide tetrahydrochloride] |  |  | 3.07 | 20 | 0.22 |  |  |  | 1.5 | 4.5 |
| CCNC(=O)COc1ccccc1CNC(=O)[C@@H]1CCc2cnc(NCC(c3ccccc3)c3ccccc3)c(=O)n21 [Example 103, (6S)-N-[(2-Ethylcarbamoylmethoxy)-benzyl]-4-oxo-3-(2,2-diphenylethylamino)-4,6,7,8-tetrahydropyrrolo[1,2-a]pyrazine-6-carboxamide hydrochloride] |  |  |  | 14 |  |  |  |  |  |  |
| Cc1cc(CNC(=O)[C@@H]2CCc3cnc(NCCc4ccccn4)c(=O)n32)c(C)nc1N.Cl.Cl.Cl [Example 68, (6S)-N-[(6-Amino-2,5-dimethyl-3-pyridyl)methyl]-3-[2-(2-pyridyl)ethylamino]-4-oxo-4,6,7,8-tetrahydropyrrolo[1,2-a]pyrazine-6-carboxamide trihydrochloride] |  |  | 2.04 | 16 | 0.23 |  |  |  |  |  |
| Cc1nc(N)ccc1CNC(=O)[C@@H]1CCc2cnc(NCCc3ccccn3)c(=O)n21.Cl.Cl.Cl [Example 15, (6S)-N-[(6-Amino-2-methyl-3-pyridyl)methyl]-4-oxo-3-[2-(2-pyridyl)ethylamino]-4,6,7,8-tetrahydropyrrolo[1,2-a]pyrazine-6-carboxamide trihydrochloride] | 1.6 | 7 | 1.3 | 7 | 0.11 | > 33000 | > 33000 | > 33000 |  |  |
| Cc1nc(N)ccc1CNC(=O)[C@@H]1CCc2cnc(NCC(c3ccccc3)c3ccccc3)c(=O)n21.Cl.Cl [Example 6, (6S)-N-[(6-Amino-2-methyl-3-pyridyl)methyl]-3-[(2,2-diphenylethyl)amino]-4-oxo-4,6,7,8-tetrahydropyrrolo[1,2-a]pyrazine-6-carboxamide dihydrochloride] |  |  | 2.5 | 11 | 0.4 | > 33000 | > 33000 | > 33000 | 1.7 | 6.2 |
| Cc1nc(N)ccc1CNC(=O)[C@@H]1CCc2cnc(NCCc3cccnc3)c(=O)n21.Cl.Cl.Cl [Example 16, (6S)-N-[(6-Amino-2-methyl-3-pyridyl)methyl]-4-oxo-3-[2-(3-pyridyl)ethylamino]-4,6,7,8-tetrahydropyrrolo[1,2-a]pyrazine-6-carboxamide trihydrochloride] |  |  | 1.6 | 17 | 0.17 |  |  |  | 2.4 | 13.3 |
| COc1ccc(CCNc2ncc3n(c2=O)[C@H](C(=O)NCc2ccc(N)nc2C)CC3)cc1OC.Cl.Cl.O [Example 7, (6S)-N-[(6-Amino-2-methyl-3-pyridyl)methyl]-3-[(3,4-dimethoxyphenethyl)amino]-4-oxo-4,6,7,8-tetrahydropyrrolo[1,2-a]pyrazine-6-carboxamide dihydrochloride monohydrate] | 1.4 | 2.5 | 9.1 | 42 | 3 | > 33000 | > 33000 | > 33000 |  |  |
| Cc1nc(N)ccc1CNC(=O)[C@@H]1CCc2cnc(NCC3c4ccccc4CCc4ccccc43)c(=O)n21 [Example 40, (6S)-N-[(6-Amino-2-methyl-3-pyridyl)methyl]-3-[(10,11-dihydro-5H-dibenzo[a,d]cyclohepten-5-yl)methylamino]-4-oxo-4,6,7,8-tetrahydropyrrolo[1,2-a]pyrazine-6-carboxamide dihydrochloride] |  |  |  | 43 |  |  |  |  |  |  |
| CCNC(=O)COc1ccccc1CNC(=O)[C@@H]1CCc2cnc(NCCc3ccccc3)c(=O)n21 [Example 71, (6S)-N-[(2-Ethylcarbamoylmethoxy)benzyl]-4-oxo-3-(2-phenethylamino)-4,6,7,8-tetrahydropyrrolo [1,2-a]pyrazine-6-carboxamide] |  |  |  | 13 |  | > 33000 | > 33000 | > 33000 |  |  |
| COc1ccc(C(CNc2ncc3n(c2=O)[C@H](C(=O)NCc2ccc(N)nc2C)CC3)c2ccc(OC)cc2)cc1.Cl.Cl [Example 23, (6S)-N-[(6-Amino-2-methyl-3-pyridyl)methyl]-3-[2,2-bis-(4-methoxy-phenyl)ethylamino]-4-oxo-4,6,7,8-tetrahydropyrrolo[1,2-a]pyrazine-6-carboxamide dihydrochloride] |  |  | 2.75 | 3.9 | 0.24 |  |  |  |  |  |
| Cc1nc(N)ccc1CNC(=O)[C@@H]1CCc2cnc(NCCc3cccc4ccccc34)c(=O)n21 [Example 50, (6S)-N-[(6-Amino-2-methyl-3-pyridyl)methyl]-3-[2-(1-naphthyl)ethylamino]-4-oxo-4,6,7,8-tetrahydropyrrolo[1,2-a]pyrazine-6-carboxamide dihydrochloride] |  |  |  | 29 |  |  |  |  |  |  |
